Assay results: US20120141977A1, “HEPATITIS B VIRUS MUTATION STRAIN WITH RESISTANCE TO ADEFOVIR DIPIVOXIL AND THE USES THEREOF” (priority 2009, published 2012)

What was measured:
HBV wild strain = test: Drug sensitivity test: HepG2 cells transiently transfected with wild-type HBV plasmid, intracellular replication intermediates by Southern blotting; format: cell-based; conditions: Hepatitis B virus, 168 h, HBV replication intermediates in cytoplasm, Southern blotting gray values, treated 7 days, read-out: half maximal inhibitory concentration (IC50) for the wild strain
Procedure: (§1) After recovery, Human hepatoma cell strain HepG2 grew as the adherent monolayer cells in the DMEM medium with 10% fetal bovine serum at 37° C. in 5% CO2. Every 3 to 5 days, cells were passaged one generation in a ratio of 1:3. 24 hours before transfection, cells were inoculated in an appropriate amount (about 2×10^5 per well in a 6-well plate). Preferably, cell density was 40 to 60% for transfection (also, 80 to 90% as well). 1 hour before transfection, the medium was replaced with fresh complete culture medium (2 ml per well), and incubated at 37° C. in 5% CO2. To each well, for example, saline for injection was added to 2 μg of DNA to make a total volume of 100 μl, followed by mixing gently and standing at room temperature. Saline for injection was added to 2 μl of VigoFect to make a total volume of 100 μl, followed by mixing gently and standing at room temperature for 5 minutes. The diluted VigoFect was added to the diluted DNA solution dropwise, mixed gently, followed by keeping the resultant working solution for transfection stand at room temperature for 15 minutes. The transfection working solution was mixed gently and 2 ml of medium was added thereto dropwise, mixed gently and then incubated at 37° C. in 5% CO2. 2 days after transfection, the medium was replaced and ADV were added thereto with the final concentrations of 0, 0.01, 0.1, 1, 5, 10 and 20 μM. […]

[1] = system: rtL180M +M204V and rtN236T; conditions: cited from earlier work
[2] = system: HBV rtE218G mutant strain; test: Drug sensitivity test: HepG2 cells transiently transfected with rtE218G mutagenic HBV plasmid, intracellular replication intermediates by Southern blotting; format: cell-based, hepatitis B virus
Procedure: as §1

## Nc1ncnc2c1ncn2CCOCP(=O)(O)O [adefovir]
HBV wild strain
  IC50: 1.7 µM
[1]
  decrease of sensitivity of combined three mutations compared with rtN236T single mutation: 2 folds
[2]; Hepatitis B virus, 168 h, HepG2 cells, HBV replication intermediates in cytoplasm, Southern blotting gray values, treated 7 days, read-out: half maximal inhibitory concentration (IC50) for the rtE218G mutant strain
  IC50: 9.3 µM
[2]; ratio mutant IC50 / wild IC50
  IC50 of rtE218G mutant strain relative to that of the wild strain: 5.5 times
